In patent US12208130B2, “Treatment of women affected with polycystic ovary syndrome” (INSTITUT NATIONAL DE LA SANTE ET DE LA RECHERCHE MEDICALE …, priority 2017, dated 2025):
Where a SMILES comes first, the peptide text is derived from it. [ ]: non-standard residue; d: D form. dPhe(4-Cl) = N[C@H](Cc1ccc(Cl)cc1)C(=O)O; d2Nal = N[C@H](Cc1ccc2ccccc2c1)C(=O)O; dCit = NC(=O)NCCC[C@@H](N)C(=O)O; d3Pal = N[C@H](Cc1cccnc1)C(=O)O

Assay: Cetrorelix measurement in maternal and fetal brain (nano-HPLC-HRMS)
Format: in vivo, mouse
Details: dams i.p. 0.5 mg/Kg E16.5-E18.5; brains at E19.5
Experimental: Timed-pregnant adult (3-4 months) C57BL6/J (B6) (Charles River, USA) dams were injected daily intraperitoneally (i.p.) from embryonic day (E) 16.5 to 18.5 with 200 μL of a solution containing respectively: 1) 0.01M phosphate buffered saline (PBS, pH 7.4, prenatal control-treated), 2) PBS with 0.5 mg Kg^−1 of the GnRH antagonist, cetrorelix acetate (Sigma, Cat #C5249; GnRH antag-treated). At E19.5, dams were anesthetized with ketamine/xylazine, and sacrificed by cervical dislocation. Dams' brains and fetal brains were collected, snap-frozen in liquid nitrogen and stored at −80° C. until nano-HPLC-HRMS experiments.
Murine maternal and embryo brain samples were prepared adapting the procedure described (Wang et al., 2014, Vol. 1345: 98-106). Briefly, the brains were weighted, homogenized with 1% formic acid in cold acetonitrile and incubated for 15 minutes at −20° C. After centrifugation, the supernatant was freeze-dried and reconstituted with 3% acetic acid and 1% trifluoroacetic acid (TFA). all of the solvents were from Sigma-Aldrich Merck (Milan, Italy). […]
The column was equipped with a nanoESl source and the capillary voltage was 2000 V in positive ion mode. […] High resolution spectra were acquired with a resolution of 60000 (FWHM) and the mass accuracy of recorded ions (vs. calculated) was ±5 ppm units (without internal calibration).

CC(=O)N[C@H](Cc1ccc2ccccc2c1)C(=O)N[C@H](Cc1ccc(Cl)cc1)C(=O)N[C@H](Cc1cccnc1)C(=O)N[C@@H](CO)C(=O)N[C@@H](Cc1ccc(O)cc1)C(=O)N[C@H](CCCNC(N)=O)C(=O)N[C@@H](CC(C)C)C(=O)N[C@@H](CCCNC(=N)N)C(=O)N1CCC[C@H]1C(=O)N[C@H](C)C(N)=O [Cetrorelix acetate, Ac-D-2Nal-D-Phe(4-Cl)-D-3Pal-Ser-Tyr-D-Cit-Leu-Arg-Pro-D-Ala-NH2] (Ac-[d2Nal][dPhe(4-Cl)][d3Pal]SY[dCit]LRP[dA]-NH2)
access to maternal and fetal brain: can access the maternal as well as the fetal brain
